Reference: patent US7608630B2, “Marasmius androsaceus L.es Fr extract, piperidone derivative, and their use for the preparation of hypertensives” (Hainan Yangpu New Special Pharmaceutical Co., Ltd., priority 2004, dated 2009)
Values joined by “and” are separate entries in the source; they are usually repeats but may differ in a detail not shown here. Equal entries are not always repeated.

Legend:
[1] = tested on: aorta smooth muscle of rabbit; experiment: Effects on aorta of rabbit (contraction of isolated aorta section caused by adrenalin); design: species or system New Zealand rabbit
Method: A New Zealand rabbit was beheaded and unconscious. After thoracotomy, its thoracic aorta was quickly taken out, and quickly placed in and flushed with a pre-cooled LOCK's solution (which comprised of 1000 ml water, 9 g NaCl, 0.35 g KCl, 0.35 g MgSO4.7H2O, 0.16 g KH2PO4, and 1 g NaHCO3) to remove bloodiness. The connective tissue outside the blood vessel was carefully cut off, and an aorta section of 2-3 mm wide at an angle of 45° relative to the vessel was taken for use in the following test.
The aorta section of 2 cm long was clamped at its both ends with frog heart clips, and put in a thermostatic perfusion tank of 38° C. with the lower end being fixed at the bottom of the tank and the top end being connected by a thread to a tensile transducer of a two-way electrophysiolograph. Oxygen was bubbled to the solution in the perfusion tank, and the contraction force of the aorta section was recorded after balancing it in the solution for 80 min. During which, the LOCK's solution was changed once per 20 min. After adding 1.2×10^−6 mg/ml adrenalin to the solution, the contraction curve of the aorta section was recorded.

[2] = tested on: ileum smooth muscle of guinea pig; experiment: Effects on ileum smooth muscle of guinea pig (automatic rhythmic contraction of isolated ileum section)
Method: The section was clamped at its both ends with frog heart clips, and placed in a perfusion tank with the lower end being fixed at the bottom of the tank and the top end being connected by a thread to a tensile transducer of a two-way electrophysiolograph, so that the automatic rhythmic contraction of the ileum section was recorded. The Tai's nutrient solution in the tank was kept at a temperature of 35° C., into which pure […] was bubbled. […] The normal contraction curve of the ileum section was firstly recorded using isoprenaline as a positive control.

[3] = tested on: blood pressure of SHR rat; experiment: Reduction of blood pressure of anesthetized SHR rat; assay type: in vivo, spontaneously hypertensive rat (SHR); conditions: for Diastolic pressure / Systolic pressure: 10 mg/kg intravenous
Method: (§1) A spontaneously hypertensive rat (SHR) was anesthetized with 40 mg/ml pentobarbital, and fixed by its back on an experimental stand. The skin at its neck was cut open after removing hair, and thereafter the right common carotid artery was separated with its proximal end being clamped by a artery clamp and its axifugal end being ligated by a thread. A V-shape cut was made with scissors at the axifugal end, into which an arterial cannula filled with heparin physiological saline was inserted. The arterial cannula was connected with a blood pressure transducer, and then the blood pressure transducer was connected to a computer-controlled three-way physiological-pharmacological recorder. The right femoral vein of the rat was separated and intubated for the injection of a drug. When the blood pressure became stable (i.e., the blood pressure contraction curve became straight), the rat was administered by intravenous route.

blood pressure of cats = experiment: Reduction of blood pressure of cat; assay type: in vivo; conditions: for Average Diastolic pressure / Average Systolic pressure / Diastolic pressure, Animal 1-4 individually / Systolic pressure, Animal 1-4 individually: cats, 5 mg/kg iv; for Diastolic pressure, Animal 1-4 individually / Systolic pressure, Animal 1-4 individually: 5 mg/kg
Method: as §1
Five cats of 2.5-3.2 kg were administered orally and intravenously respectively according to the method in Example 8, and then their systolic pressure and diastolic pressure were determined using normal cats non-administered as a control group.

[4] = concentration range 5×10^−4 to 10×10^−2 mg/ml
[5] = SHR rat, 5 min after administration
[6] = SHR rat, 60 min after administration
[7] = SHR rat, 120 min after administration
[8] = SHR rat, 240 min after administration

SMILES: CC1(C)CNCC(C)(C)C1=O [Compound of formula II, 3,3,5,5-tetramethyl-4-piperidone]
- Time of taking effect ([1]; concentration 1 × 10^−4 mg/ml): 2 min
- Contraction force ([1]; concentration 1 × 10^−4 mg/ml, 10 min, then adrenalin 1.2×10^−6 mg/ml, relative to original value): 0.3
- reduction of the contraction of aorta section caused by adrenalin ([1]; concentration range 5×10^−3-1×10^−4 mg/ml): could obviously reduce the contraction of aorta section caused by adrenalin
- inhibition of the contraction of aorta smooth muscle caused by adrenalin [1, 4]: inhibit the contraction of aorta smooth muscle of rabbit caused by adrenalin
- contraction force resumed by adrenalin, fraction of the original value ([1]; sample 10 min, then adrenalin 1.2×10^−6 mg/ml, stated for the three samples together): ½-⅓
- Relaxation Time ([2]; concentration 1 × 10^−4 mg/ml): 7 h
- Time of taking effect ([2]; concentration 1 × 10^−4 mg/ml): 2 min
- inhibition of the automatic rhythmic contraction of ileum section [2, 4]: inhibit the automatic rhythmic contraction of ileum section
- inhibition of the automatic rhythmic contraction of the ileum section ([2]; different concentrations): could inhibit the automatic rhythmic contraction of the ileum section
- effect of reducing blood pressure ([3]; 5-20 mg/kg, model of anesthetic rat): very obvious effect of reducing blood pressure
- Diastolic pressure [3, 5]: 105 ± 11 mm/Hg
- Systolic pressure [3, 5]: 141 ± 9.2 mm/Hg
- Diastolic pressure [3, 6]: 84 ± 11 mm/Hg
- Systolic pressure [3, 6]: 120 ± 12 mm/Hg
- Diastolic pressure [3, 7]: 83 ± 21 mm/Hg
- Systolic pressure [3, 7]: 125 ± 14 mm/Hg
- Diastolic pressure [3, 8]: 110 ± 18 mm/Hg
- Systolic pressure [3, 8]: 163 ± 12 mm/Hg
- Diastolic pressure ([3]; SHR rat, before administration): 124 ± 12 mm/Hg
- Systolic pressure ([3]; SHR rat, before administration): 174 ± 11 mm/Hg
- reduction of systolic pressure and diastolic pressure ([3]; SHR rat, dosage range 10-200 mg/kg, intravenous): could obviously reduce the systolic pressure and diastolic pressure of SHR rat
- effect of reducing blood pressure (blood pressure of cats; 5-20 mg/kg, model of anesthetic cat): very obvious effect of reducing blood pressure
- Average Diastolic pressure (blood pressure of cats; 10 min after administration): 106 mmHg
- Average Systolic pressure (blood pressure of cats; 10 min after administration): 135.5 mmHg
- Diastolic pressure, Animal 1-4 individually (blood pressure of cats; 10 min after administration): 84 mmHg and 93 mmHg and 146 mmHg and 101 mmHg
- Systolic pressure, Animal 1-4 individually (blood pressure of cats; 10 min after administration): 100 mmHg and 110 mmHg and 182 mmHg and 150 mmHg
- Average Diastolic pressure (blood pressure of cats; 20 min after administration): 105.75 mmHg
- Average Systolic pressure (blood pressure of cats; 20 min after administration): 139.75 mmHg
- Diastolic pressure, Animal 1-4 individually (blood pressure of cats; 20 min after administration): 79 mmHg and 109 mmHg and 137 mmHg and 98 mmHg
- Systolic pressure, Animal 1-4 individually (blood pressure of cats; 20 min after administration): 111 mmHg and 126 mmHg and 172 mmHg and 150 mmHg
- Average Diastolic pressure (blood pressure of cats; 30 min after administration): 106.25 mmHg
- Average Systolic pressure (blood pressure of cats; 30 min after administration): 141.25 mmHg
- Diastolic pressure, Animal 1-4 individually (blood pressure of cats; 30 min after administration): 80 mmHg and 111 mmHg and 136 mmHg and 98 mmHg
- Systolic pressure, Animal 1-4 individually (blood pressure of cats; 30 min after administration): 119 mmHg and 137 mmHg and 173 mmHg and 136 mmHg
- Average Diastolic pressure (blood pressure of cats; 40 min after administration): 110.5 mmHg
- Average Systolic pressure (blood pressure of cats; 40 min after administration): 144.5 mmHg
- Diastolic pressure, Animal 1-4 individually (blood pressure of cats; 40 min after administration): 100 mmHg and 111 mmHg and 134 mmHg and 97 mmHg
- Systolic pressure, Animal 1-4 individually (blood pressure of cats; 40 min after administration): 134 mmHg and 137 mmHg and 172 mmHg and 135 mmHg
- Average Diastolic pressure (blood pressure of cats; 50 min after administration): 117 mmHg
- Average Systolic pressure (blood pressure of cats; 50 min after administration): 152.25 mmHg
- Diastolic pressure, Animal 1-4 individually (blood pressure of cats; 50 min after administration): 117 mmHg and 120 mmHg and 134 mmHg and 97 mmHg
- Systolic pressure, Animal 1-4 individually (blood pressure of cats; 50 min after administration): 156 mmHg and 147 mmHg and 171 mmHg and 135 mmHg
- Average Diastolic pressure (blood pressure of cats; 60 min after administration): 118.25 mmHg
- Average Systolic pressure (blood pressure of cats; 60 min after administration): 158 mmHg
- Diastolic pressure, Animal 1-4 individually (blood pressure of cats; 60 min after administration): 131 mmHg and 120 mmHg and 130 mmHg and 92 mmHg
- Systolic pressure, Animal 1-4 individually (blood pressure of cats; 60 min after administration): 174 mmHg (2×) and 142 mmHg (2×)
- Average Diastolic pressure (blood pressure of cats; 90 min after administration): 121.75 mmHg
- Average Systolic pressure (blood pressure of cats; 90 min after administration): 164.5 mmHg
- Diastolic pressure, Animal 1-4 individually (blood pressure of cats; 90 min after administration): 122 mmHg and 129 mmHg and 144 mmHg and 92 mmHg
- Systolic pressure, Animal 1-4 individually (blood pressure of cats; 90 min after administration): 170 mmHg and 167 mmHg and 178 mmHg and 143 mmHg
- Average Diastolic pressure (blood pressure of cats; 120 min after administration): 124 mmHg
- Average Systolic pressure (blood pressure of cats; 120 min after administration): 174.5 mmHg
- Diastolic pressure, Animal 1-4 individually (blood pressure of cats; 120 min after administration): 123 mmHg and 129 mmHg and 148 mmHg and 96 mmHg
- Systolic pressure, Animal 1-4 individually (blood pressure of cats; 120 min after administration): 182 mmHg and 167 mmHg and 202 mmHg and 147 mmHg
- Average Diastolic pressure (blood pressure of cats; 150 min after administration): 127.5 mmHg
- Average Systolic pressure (blood pressure of cats; 150 min after administration): 177 mmHg
- Diastolic pressure, Animal 1-4 individually (blood pressure of cats; 150 min after administration): 124 mmHg and 140 mmHg and 148 mmHg and 98 mmHg
